Test results: patent US20180099931A1 (AbbVie S.à.r.l., priority 2016, published 2018)
pEC50: −log10 of the molar value. Where two headings read alike, the source gives them in different places.

Target: T1, F508delCFTR (Homo sapiens, UniProt P13569, DEL508-508)
T1 construct: expressed in transfected cells; host or cells: CFBE41o- human lung-derived epithelial cells (CFBE4lo-F508delCFTR-HRP), doxycycline-inducible
Assay: Cell Surface Expression-Horse Radish Peroxidase (CSE-HRP) Assay;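 as to Maximum % activity (with co-corrector): co-corrector and positive control are both the same reference corrector at 2 µM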;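 as to Maximum % activity (without co-corrector): percent of the 2 µM on-plate positive control corrector response above DMSO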
Assay type: cell-based
Conditions: for Maximum % activity (with co-corrector) / Emax: maximum at any tested concentration, normalized to on-plate positive control; for Emax: read-out: Maximum % activity (without co-corrector)

[1] = test compound without co-corrector, read-out: EC50 (without co-corrector)
[2] = with co-corrector (2 μM of 3-[(2R,4R)-4-({[1-(2,2-difluoro-1,3-benzodioxol-5-yl)cyclopropyl]carbonyl}amino)-7-methoxy-3,4-dihydro-2H-chromen-2-yl]benzoic acid), read-out: EC50 (with co-corrector)
[3] = CSE-HRP, test compound without co-corrector, read-out: EC50 (without co-corrector)
[4] = CSE-HRP, with co-corrector (2 μM of 3-[(2R,4R)-4-({[1-(2,2-difluoro-1,3-benzodioxol-5-yl)cyclopropyl]carbonyl}amino)-7-methoxy-3,4-dihydro-2H-chromen-2-yl]benzoic acid), read-out: EC50 (with co-corrector)
[5] = CSE-HRP, with co-corrector (2 μM)
[6] = test compound without co-corrector
[7] = with co-corrector (2 μM of 3-[(2R,4R)-4-({[1-(2,2-difluoro-1,3-benzodioxol-5-yl)cyclopropyl]carbonyl}amino)-7-methoxy-3,4-dihydro-2H-chromen-2-yl]benzoic acid)

T1 sequence (P13569 with tags, fused parts or gaps DEL508-508): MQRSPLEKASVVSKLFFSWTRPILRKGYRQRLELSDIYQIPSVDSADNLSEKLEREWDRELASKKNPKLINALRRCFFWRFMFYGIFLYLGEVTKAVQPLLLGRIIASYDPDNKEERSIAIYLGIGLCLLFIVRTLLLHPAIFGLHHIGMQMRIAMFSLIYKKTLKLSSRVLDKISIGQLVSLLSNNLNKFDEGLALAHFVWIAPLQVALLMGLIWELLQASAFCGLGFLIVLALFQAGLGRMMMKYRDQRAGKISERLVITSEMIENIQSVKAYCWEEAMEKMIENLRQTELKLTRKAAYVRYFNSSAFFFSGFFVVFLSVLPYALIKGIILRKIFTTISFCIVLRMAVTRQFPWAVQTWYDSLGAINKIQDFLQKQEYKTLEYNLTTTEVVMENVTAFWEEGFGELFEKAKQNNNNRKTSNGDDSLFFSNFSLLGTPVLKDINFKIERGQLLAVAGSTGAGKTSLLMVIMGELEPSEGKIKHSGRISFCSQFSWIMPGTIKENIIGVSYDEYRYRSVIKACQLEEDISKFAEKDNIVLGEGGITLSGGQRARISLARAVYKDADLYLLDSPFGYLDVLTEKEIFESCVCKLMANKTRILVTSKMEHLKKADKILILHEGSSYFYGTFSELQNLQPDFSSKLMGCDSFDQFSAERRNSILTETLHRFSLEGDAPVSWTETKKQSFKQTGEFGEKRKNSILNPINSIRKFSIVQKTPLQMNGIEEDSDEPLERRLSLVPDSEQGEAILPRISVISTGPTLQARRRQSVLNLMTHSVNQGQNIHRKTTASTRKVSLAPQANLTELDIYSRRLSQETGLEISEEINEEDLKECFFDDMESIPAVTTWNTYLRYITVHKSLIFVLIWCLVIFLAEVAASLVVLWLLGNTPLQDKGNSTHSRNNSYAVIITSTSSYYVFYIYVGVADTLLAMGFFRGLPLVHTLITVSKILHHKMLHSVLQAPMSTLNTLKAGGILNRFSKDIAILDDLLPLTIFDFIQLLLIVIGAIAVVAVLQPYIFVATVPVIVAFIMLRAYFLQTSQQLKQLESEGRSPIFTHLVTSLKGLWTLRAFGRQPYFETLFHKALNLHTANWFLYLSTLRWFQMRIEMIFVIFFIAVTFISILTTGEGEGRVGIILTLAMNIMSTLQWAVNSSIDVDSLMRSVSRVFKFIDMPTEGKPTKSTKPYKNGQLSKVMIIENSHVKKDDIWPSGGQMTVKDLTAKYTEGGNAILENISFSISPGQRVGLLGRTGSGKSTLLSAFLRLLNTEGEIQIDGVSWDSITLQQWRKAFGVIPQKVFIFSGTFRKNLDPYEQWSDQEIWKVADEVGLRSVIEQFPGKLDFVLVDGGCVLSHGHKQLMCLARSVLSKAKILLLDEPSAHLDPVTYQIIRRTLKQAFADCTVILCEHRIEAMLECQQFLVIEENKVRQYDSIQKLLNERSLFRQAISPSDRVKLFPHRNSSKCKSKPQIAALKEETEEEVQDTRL

Row | pEC50 [1] | pEC50 [2] | Maximum % activity (with co-corrector) (with co-corrector (2 μM)) | Emax (without co-corrector) [%] | pEC50 [3] | pEC50 [4] | Maximum % activity (with co-corrector) [5] | Emax (CSE-HRP, without co-corrector) [%] | Emax [6] [%] | Maximum % activity (with co-corrector) [7] | SMILES
1 |  |  |  |  | 5.00 to 6.00 | 5.00 to 6.00 | +++ (≥350) | 100 to 200 |  |  | COc1cc(C(F)(F)F)ccc1CN[C@@H]1[C@@H](C(C)(C)C)[C@H](C(=O)O)N(C(=O)[C@@H]2CCCCO2)[C@@H]1c1ccccc1 [II-82]
2 | > 6.00 | 5.00 to 6.00 | +++ (≥350) |  |  |  |  |  | < 100 |  | CC(C)(C)[C@H]1[C@H](NCc2cc(Br)ccc2OC(F)F)[C@H](c2ccccc2)N(C(=O)C2CCCCC2)[C@@H]1C(=O)O [III-131]
3 | 5.00 to 6.00 | 5.00 to 6.00 |  |  |  |  |  |  | 100 to 200 | +++ (≥350) | COc1ccc(C(C)(C)C)cc1CN[C@H]1[C@H](C(C)(C)C)[C@@H](C(=O)O)N(C(=O)[C@@H]2CCC[C@](C)(O)C2)[C@H]1c1ccccc1 [II-526]
4 | < 5.00 | 5.00 to 6.00 | ++ (≥150 and <350) |  |  |  |  |  | < 100 |  | CC(C)(C)[C@H]1[C@H](NCc2ccc(F)c(C#N)c2)[C@H](c2ccccc2)N(C(=O)C2CCCCC2)[C@@H]1C(=O)O [III-125]
5 | 5.00 to 6.00 | 5.00 to 6.00 |  |  |  |  |  |  | < 100 | ++ (≥150 and <350) | COc1ccc(C(F)(F)F)cc1CN[C@@H]1[C@@H](C(C)(C)C)[C@@H](C(=O)O)N(C(=O)C2CCCCC2)[C@H]1c1ccccc1 [II-413]
6 |  |  |  |  | 5.00 to 6.00 | 5.00 to 6.00 | +++ (≥350) | 100 to 200 |  |  | COc1ccc(C2=CCOC2)cc1CN[C@H]1[C@H](C(C)(C)C)[C@@H](C(=O)O)N(C(=O)C2CCCCC2)[C@H]1c1ccccc1 [II-293]
7 | < 5.00 | 5.00 to 6.00 |  |  |  |  |  |  | < 100 | ++ (≥150 and <350) | COc1ccc(CN[C@@H]2[C@@H](C(C)(C)C)[C@H](C(=O)O)N(C(=O)C3CCCCC3)[C@@H]2c2ccccc2)cn1 (racemic) [III-25]
8 | > 6.00 | > 6.00 | +++ (≥350) |  |  |  |  |  | > 200 |  | COc1ccc(C(C)(C)C)cc1CN[C@H]1[C@H](C(C)(C)C)[C@@H](C(=O)O)N(C(=O)C2CC2c2cccs2)[C@H]1c1ccccc1 (stereo partly drawn) [III-193]
9 | < 5.00 | 5.00 to 6.00 | ++ (≥150 and <350) |  |  |  |  |  | < 100 |  | COc1ccc(C(F)(F)F)cc1CN[C@H]1[C@H](C(C)(C)C)[C@@H](C(=O)O)N(C(=O)[C@](OC)(c2ccccc2)C(F)(F)F)[C@H]1c1ccccc1 [III-100]
10 |  |  |  |  | 5.00 to 6.00 | 5.00 to 6.00 | +++ (≥350) | 100 to 200 |  |  | COc1ccc(C(C)(C)C)cc1CN[C@H]1[C@H](C(C)(C)C)[C@@H](C(=O)O)N(C(=O)c2ccc3c(c2)OCCCO3)[C@H]1c1ccccc1 [II-230]
11 | > 6.00 | > 6.00 |  |  |  |  |  |  | 100 to 200 | +++ (≥350) | COc1ncc(-c2ccc(C)cc2)cc1CN[C@H]1[C@H](C(C)(C)C)[C@@H](C(=O)O)N(C(=O)C2CCCCC2)[C@H]1c1cccnc1N(C)C [II-410]
12 | < 5.00 | 5.00 to 6.00 |  |  |  |  |  |  | < 100 | ++ (≥150 and <350) | CC(C)(C)[C@@H]1[C@@H](NCc2cc(C(F)(F)F)ccc2OCCOC(F)(F)F)[C@@H](c2ccccc2)N(C(=O)C2CCCCC2)[C@H]1C(=O)O (racemic) [III-86]
13 |  |  |  |  | 5.00 to 6.00 | 5.00 to 6.00 | +++ (≥350) | < 100 |  |  | COc1ccc(C(C)(C)C)cc1CN[C@H]1[C@H](C(C)(C)C)[C@@H](C(=O)O)N(C(=O)C(OC)C(C)(C)C)[C@H]1c1ccccc1 (relative stereo) [II-297]
14 |  |  |  |  | 5.00 to 6.00 | 5.00 to 6.00 | +++ (≥350) | 100 to 200 |  |  | COc1ccc(C(C)(C)C)cc1CN[C@H]1[C@H](C(C)(C)C)[C@@H](C(=O)O)N(C(=O)CN2CCOCC2)[C@H]1c1ccccc1 [II-209]

Second part, the compound before the results:

Row | SMILES | pEC50 [1] | pEC50 [2] | Maximum % activity (with co-corrector) (with co-corrector (2 μM)) | Emax (without co-corrector) [%] | pEC50 [3] | pEC50 [4] | Maximum % activity (with co-corrector) [5] | Emax (CSE-HRP, without co-corrector) [%] | Emax [6] [%] | Maximum % activity (with co-corrector) [7]
15 | COc1ccc(C(C)(C)C)cc1CN[C@H]1[C@H](C(C)(C)C)[C@@H](C(=O)O)N(C(=O)[C@@H]2[C@@H](C(F)(F)F)[C@@H]3CC[C@H]2O3)[C@H]1c1cccnc1N(C)C (relative stereo) [Example I-204] | > 6.00 | > 6.00 | +++ (≥350) | > 200 |  |  |  |  |  | 
16 | COc1ccc(C(F)(F)F)cc1CN[C@H]1[C@H](C(C)(C)C)[C@@H](C(=O)O)N(C(=O)[C@@H]2OCC[C@@H]2C(C)C)[C@H]1c1ccccc1 (relative stereo) [Example I-105] | 5.00 to 6.00 | 5.00 to 6.00 | +++ (≥350) | < 100 |  |  |  |  |  | 
17 | CCOC(=O)N1[C@H](C(=O)O)[C@@H](C(C)(C)C)[C@H](NCc2cc(C(F)(F)F)cnc2OC)[C@@H]1c1ccccc1C(C)C [Example 97, (2S,3S,4S,5S)-3-tert-butyl-1-(ethoxycarbonyl)-4-({[2-methoxy-5-(trifluoromethyl)pyridin-3-yl]methyl}amino)-5-[2-(propan-2-yl)phenyl]pyrrolidine-2-carboxylic acid] | > 6.00 | > 6.00 | +++ (≥350) | > 200 |  |  |  |  |  | 
18 | COc1cc(OC)nc(N[C@@H]2[C@@H](C(C)(C)C)[C@H](C(=O)O)N(C(=O)C3CCCCC3)[C@@H]2c2ccccc2)n1 (racemic) [Example I-1] | 5.00 to 6.00 | 5.00 to 6.00 | +++ (≥350) | < 100 |  |  |  |  |  | 
19 | COc1ncc(C2CCC2)cc1CN[C@H]1[C@H](C(C)(C)OC)[C@@H](C(=O)O)N(C(=O)C2CCCCC2)[C@H]1c1ccccc1 [Example I-115] | 5.00 to 6.00 | > 6.00 | +++ (≥350) | > 200 |  |  |  |  |  | 
20 | COc1ccc(C(C)(C)C)cc1CN[C@H]1[C@H](C(C)(C)C)[C@@H](C(=O)O)N(C(=O)C2CCOC2C(C)C)[C@H]1c1ccccc1 (stereo partly drawn) [Example I-218] | 5.00 to 6.00 | 5.00 to 6.00 | +++ (≥350) | > 200 |  |  |  |  |  | 
21 | COc1ccc(C(C)(C)C)cc1CN[C@H]1[C@H](C(C)(C)C)[C@@H](C(=O)O)N(C(=O)C2OC[C@@H]3CCC[C@H]23)[C@H]1c1ccccc1 (relative stereo) [Example I-107] | 5.00 to 6.00 | 5.00 to 6.00 | +++ (≥350) | > 200 |  |  |  |  |  | 
22 | COc1nc(C(C)(C)C)ccc1CN[C@H]1[C@H](C(C)(C)C)[C@@H](C(=O)O)N(C(=O)[C@@H]2CCCCO2)[C@H]1c1ccccc1 [Example 38, (2S,3S,4S,5S)-3-tert-butyl-4-{[(6-tert-butyl-2-methoxypyridin-3-yl)methyl]amino}-1-[(2S)-oxane-2-carbonyl]-5-phenylpyrrolidine-2-carboxylic acid] | 5.00 to 6.00 | > 6.00 | +++ (≥350) | > 200 |  |  |  |  |  | 
23 | Cc1cc(C(F)(F)F)cc(N[C@@H]2[C@@H](C(C)(C)C)[C@H](C(=O)O)N(C(=O)C3CCCCC3)[C@@H]2c2ccccc2)n1 [Example 3, (2R,3R,4R,5R)-3-tert-butyl-1-(cyclohexanecarbonyl)-4-{[6-methyl-4-(trifluoromethyl)pyridin-2-yl]amino}-5-phenylpyrrolidine-2-carboxylic acid] | 5.00 to 6.00 | 5.00 to 6.00 | ++ (≥150 and <350) | < 100 |  |  |  |  |  | 
24 | COc1ncc(C(C)(C)C)cc1CN[C@H]1[C@H](C(C)(C)C)[C@@H](C(=O)O)N(C(=O)C2CCCCC2)[C@H]1c1ccccc1 [Example 27, (2S,3S,4S,5S)-3-tert-butyl-4-{[(5-tert-butyl-2-methoxypyridin-3-yl)methyl]amino}-1-(cyclohexanecarbonyl)-5-phenylpyrrolidine-2-carboxylic acid] | 5.00 to 6.00 | 5.00 to 6.00 | +++ (≥350) | > 200 |  |  |  |  |  | 
25 | COc1ncc(C(F)(F)F)cc1CN[C@H]1[C@H](C(C)(C)C)[C@@H](C(=O)O)N(C(=O)C2CCCCC2)[C@H]1c1ccccc1OC(F)F [Example 14, (2S,3S,4S,5S)-3-tert-butyl-1-(cyclohexanecarbonyl)-5-[2-(difluoromethoxy)phenyl]-4-({[2-methoxy-5-(trifluoromethyl)pyridin-3-yl]methyl}amino)pyrrolidine-2-carboxylic acid] | 5.00 to 6.00 | 5.00 to 6.00 | +++ (≥350) | < 100 |  |  |  |  |  | 
26 | COc1ncc(C2CCC2)cc1CN[C@H]1[C@H](C23CC(C2)C3)[C@@H](C(=O)O)N(C(=O)OC(C)C)[C@H]1c1ccccc1 [Example I-236] | 5.00 to 6.00 | 5.00 to 6.00 | +++ (≥350) | 100 to 200 |  |  |  |  |  | 
27 | COc1ccc(C(C)(C)C)cc1CN[C@H]1[C@H](C(C)(C)C)[C@@H](C(=O)O)N(C(=O)[C@@H]2CCCO2)[C@H]1c1ccccc1C [Example I-261] |  |  |  |  | 5.00 to 6.00 | 5.00 to 6.00 | +++ (≥350) | > 200 |  | 
